Here are results for nine compounds from patent publication US20260306527A1, “PRMT INHIBITOR COMPOUNDS AND THE USES THEREOF” (Purdue Research Foundation, priority 2023, published 2026).

Assay [1] addresses T1, PRMT1 (Homo sapiens, UniProt Q99873).
T1 construct: made in house
The assay can be described thus: SAHH-coupled fluorescence assay, inhibition of PRMT1. Type of assay: biochemical. In short, it runs like this:
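PRMT1 (0.1 μM) was run with 10 μM AdoMet, 5 μM SAHH and 10 μM ThioGlo4 in 2.5 mM HEPES pH 7.0, 25 mM NaCl, 25 μM EDTA, 50 μM TCEP and 0.01% Triton X-100. Fluorescence (ex 400/em 465 nm) was monitored for 15 min. Assays were done in duplicate.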

Assay [2] addresses T2, PRMT8 (Homo sapiens, UniProt Q9NR22). The assay can be described thus: selectivity of YD1113/YD1290 on PRMT panel, PRMT8. The format is biochemical. As for the experimental part: (§1) The selectivity of compounds YD1113 and YD1290 on PRMTs were performed by Reaction Biology Corp.
(§2) Next, the selectivity of YD1113 was investigated on a panel of PRMTs at 10 μM.
(§3) After validating the benzyl urea moiety as an unconventional homocysteine mimic of SAH for PRMTs, it was hypothesized that incorporating the benzyl urea moiety into the original pan PRMT inhibitor II757 would build a potent bisubstrate inhibitor. […] To enable a stable tri-substitution, the sulfur atom with a nitrogen atom was replaced. YD1290 was synthesized following the reported methods 9, 15 and tested in a radioactivity assay for PRMTs (FIG. 6b).

Assay [3] deals with PRMT3. Briefly: selectivity of YD1113/YD1290 on PRMT panel, PRMT3. Type of assay: biochemical. On the procedure:
as §1, §2, §3

Assay [4] has as its system PRMT4. Briefly: selectivity of YD1113/YD1290 on PRMT panel, PRMT4. The format is biochemical. On the procedure:
as §1, §2, §3

The next assay addresses PRMT5 (Homo sapiens, UniProt O14744). Briefly: selectivity of YD1113 on PRMT panel, PRMT5. The conditions noted are these: read-out: IC50 (nM) | PRMT5. Type of assay: biochemical. On the procedure:
as §1, §2

Assay [5] deals with T3, PRMT6 (Homo sapiens, UniProt Q96LA8). Briefly: selectivity of YD1113/YD1290 on PRMT panel, PRMT6. The format is biochemical. On the procedure:
as §1, §2, §3

Assay [6] addresses T1, PRMT1. The assay can be described thus: selectivity of YD1113/YD1290 on PRMT panel, PRMT1. The format is biochemical. On the procedure: as §1, §2, §3
Assay [7] deals with PRMT7. The assay can be described thus: selectivity of YD1113 on PRMT panel, PRMT7. The format is biochemical. On the procedure: as §1, §2
Assay [8] deals with T2, PRMT8. The assay can be described thus: radioactive assay (Reaction Biology Corp.), inhibition of PRMT8. The format is biochemical. As for the experimental part: (§4) Next, the inhibition activity of the library was investigated for five PRMT members from type I PRMTs.
(§5) The PRMT 4, 6 and 8 methylation assays were performed by Reaction Biology corp.

A further assay relates to PRMTs. The conditions noted are these: cited from earlier work.
Assay [9] concerns the target T4, PRMT4 (Homo sapiens, UniProt Q86X55).
T4 sequence (Q86X55 1-608): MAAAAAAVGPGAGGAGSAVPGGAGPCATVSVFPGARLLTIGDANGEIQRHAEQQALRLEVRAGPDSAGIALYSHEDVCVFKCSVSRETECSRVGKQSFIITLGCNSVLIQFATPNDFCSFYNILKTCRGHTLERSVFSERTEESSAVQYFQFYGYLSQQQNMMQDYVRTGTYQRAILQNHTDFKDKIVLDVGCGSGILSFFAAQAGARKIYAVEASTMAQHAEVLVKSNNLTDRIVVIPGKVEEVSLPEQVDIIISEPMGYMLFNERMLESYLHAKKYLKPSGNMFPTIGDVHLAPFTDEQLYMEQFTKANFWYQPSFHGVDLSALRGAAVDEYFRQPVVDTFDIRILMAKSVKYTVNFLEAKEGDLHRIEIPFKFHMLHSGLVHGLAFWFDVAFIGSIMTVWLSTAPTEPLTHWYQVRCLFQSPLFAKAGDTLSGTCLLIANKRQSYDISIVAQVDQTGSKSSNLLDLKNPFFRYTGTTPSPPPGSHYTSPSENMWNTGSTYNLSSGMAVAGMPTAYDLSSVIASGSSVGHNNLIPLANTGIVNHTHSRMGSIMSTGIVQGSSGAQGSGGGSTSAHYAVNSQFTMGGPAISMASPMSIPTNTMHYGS
The assay can be described thus: radioactive assay (Reaction Biology Corp.), inhibition of PRMT4. Type of assay: biochemical. On the procedure:
as §4, §5

The target of assay [10] is T5, PRMT3 (Homo sapiens, UniProt O60678). Briefly: SAHH-coupled fluorescence assay, inhibition of PRMT3. Type of assay: biochemical. On the set-up: PRMT3 (residues 211-531) was cloned into the pET28a-MHL expression vector; tag of the pET28a-MHL vector (not described); made in house; host or cells: Escherichia coli BL21(DE3). In short, it runs like this:
(§6)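 Coupled SAHH/ThioGlo4 fluorescence read-out (ex 380 nm, em 505 nm) of PRMT3 (0.25 μM) methylation with 30 μM AdoMet and 5 μM SAHH. Buffer was 20 mM Tris pH 7.5 with 0.01% Triton X-100. Run in duplicate.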

For assay [11], the target named is T3, PRMT6. The assay can be described thus: radioactive assay (Reaction Biology Corp.), inhibition of PRMT6. The format is biochemical. As for the experimental part: as §4, §5
Assay [12] relates to PRMT3. The assay can be described thus: SAHH-coupled fluorescence assay, inhibition of PRMT3. The format is biochemical. The following applies: read-out: IC50[μM] | PRMT3. The gist of the method: as §6
A further assay relates to PRMT4/7. The following applies: previously reported; cited from earlier work.
The next assay has as its system PRMT 5/7. The following applies: cited from earlier work.
The subject of the next assay is DOT1L. The conditions noted are these: cited from earlier work.
Assay [13] has as its target T1, PRMT1. Briefly: thermal shift assay PRMT1. Type of assay: binding. The conditions noted are these: 100 μM compound, 10 μM protein. On the procedure:
(§7) The fluorescence-based thermal shift assay was performed using a StepOne plus qPCR instrument (Thermal Fisher). For PRMT1, 10 μM of protein was mixed with 2× sypro orange and DMSO, or 100 μM SAM, or 100 μM YD1113, or 100 μM YD1290 in a buffer consisting of 2.5 mM HEPES (pH=7.0), 25 mM NaCl, 25 μM EDTA, 50 μM TCEP, 0.01% Triton X-100. For PRMT3, 20 μM of protein was mixed with 2× sypro orange and DMSO, or 100 μM SAM, or 100 μM YD1113, or 100 μM YD1290 in a buffer consisting of 20 mM Tris (pH=7.5), 0.01% Triton X-100. For PRMT4, 20 μM of protein was mixed with 2× sypro orange and DMSO, or 100 μM SAM, or 100 μM YD1113, or 100 μM YD1290 in a buffer consisting of 20 mM bicine (pH=8.5), 0.01% Triton X-100. All samples were heated from 25° C. to 75° C. at an increased rate of 0.5° C. per minute. Protein denaturation was monitored by the increased fluorescence signal of Sypro Orange, which captures exposed hydrophobic residues during thermal unfolding. The recorded curves were analyzed by the software StepOne plus and plotted in GraphPad Prism 8 software.
(§8) Next, the thermal shift assay (TSA) was conducted as an orthogonal method to examine the effects of YD1290 on the thermal stability of PRMT1, 3, and 4 (Figure S1).

The target of assay [14] is T6, PRMT4 (Homo sapiens, UniProt Q86X55).
T6 construct: PRMT4 (residues 140-480) was cloned into the pFBOH-MHL vector; tag of the pFBOH-MHL vector (poly-His implied by Ni-NTA purification; not described); made in house; host or cells: Sf9 insect cells
Briefly: thermal shift assay PRMT4. Type of assay: binding. The following applies: 100 μM compound, 20 μM protein. On the procedure:
as §7, §8

In assay [15] the target is T5, PRMT3. Briefly: thermal shift assay PRMT3. Type of assay: binding. Also noted: PRMT3 (residues 211-531) was cloned into the pET28a-MHL expression vector; tag of the pET28a-MHL vector (not described); made in house; host or cells: Escherichia coli BL21(DE3). The conditions noted are these: 100 μM compound, 20 μM protein. On the procedure: as §7, §8
Assay [16] concerns the target PRMT7 (Homo sapiens, UniProt Q9NVM4). The following applies: cited from earlier work.
A further assay relates to PRMT4/5. The assay can be described thus: inhibition of PRMT4/5 (figure legend). The format is biochemical.

“Also recorded” adds a separate entry of the source. Some results are limits rather than exact numbers.

T2 sequence (Q9NR22 whole entry, species assumed): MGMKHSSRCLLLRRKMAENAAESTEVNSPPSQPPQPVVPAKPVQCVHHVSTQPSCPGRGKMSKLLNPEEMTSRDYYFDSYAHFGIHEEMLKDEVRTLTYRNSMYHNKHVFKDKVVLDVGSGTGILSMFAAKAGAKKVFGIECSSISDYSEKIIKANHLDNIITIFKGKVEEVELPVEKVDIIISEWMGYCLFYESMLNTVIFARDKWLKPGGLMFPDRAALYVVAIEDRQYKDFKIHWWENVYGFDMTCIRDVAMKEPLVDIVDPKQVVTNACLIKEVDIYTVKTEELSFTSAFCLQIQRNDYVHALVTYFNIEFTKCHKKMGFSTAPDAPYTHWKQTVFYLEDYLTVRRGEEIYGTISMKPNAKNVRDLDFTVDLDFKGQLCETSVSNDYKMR
T5 sequence (O60678 211-531): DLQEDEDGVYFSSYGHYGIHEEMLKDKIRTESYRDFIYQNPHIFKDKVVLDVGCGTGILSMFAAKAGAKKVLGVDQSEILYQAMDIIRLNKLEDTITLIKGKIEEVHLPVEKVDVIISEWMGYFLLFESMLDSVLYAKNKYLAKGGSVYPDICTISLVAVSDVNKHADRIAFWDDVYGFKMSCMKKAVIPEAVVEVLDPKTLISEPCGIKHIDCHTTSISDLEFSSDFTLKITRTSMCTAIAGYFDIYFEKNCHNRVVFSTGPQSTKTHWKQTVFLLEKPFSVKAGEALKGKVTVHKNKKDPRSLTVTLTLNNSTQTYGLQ
T1 sequence (Q99873 whole entry, species assumed): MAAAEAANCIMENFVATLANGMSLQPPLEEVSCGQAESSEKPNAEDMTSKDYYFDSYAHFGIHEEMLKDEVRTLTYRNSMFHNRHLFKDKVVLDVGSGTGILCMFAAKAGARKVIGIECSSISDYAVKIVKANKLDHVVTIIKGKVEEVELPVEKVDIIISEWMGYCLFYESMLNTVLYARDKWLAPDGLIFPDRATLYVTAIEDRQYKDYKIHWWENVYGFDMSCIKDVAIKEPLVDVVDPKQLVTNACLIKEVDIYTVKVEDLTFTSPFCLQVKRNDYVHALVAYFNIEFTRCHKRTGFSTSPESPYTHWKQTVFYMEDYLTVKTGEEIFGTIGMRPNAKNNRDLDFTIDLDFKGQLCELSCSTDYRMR
T3 sequence (Q96LA8 whole entry, species assumed): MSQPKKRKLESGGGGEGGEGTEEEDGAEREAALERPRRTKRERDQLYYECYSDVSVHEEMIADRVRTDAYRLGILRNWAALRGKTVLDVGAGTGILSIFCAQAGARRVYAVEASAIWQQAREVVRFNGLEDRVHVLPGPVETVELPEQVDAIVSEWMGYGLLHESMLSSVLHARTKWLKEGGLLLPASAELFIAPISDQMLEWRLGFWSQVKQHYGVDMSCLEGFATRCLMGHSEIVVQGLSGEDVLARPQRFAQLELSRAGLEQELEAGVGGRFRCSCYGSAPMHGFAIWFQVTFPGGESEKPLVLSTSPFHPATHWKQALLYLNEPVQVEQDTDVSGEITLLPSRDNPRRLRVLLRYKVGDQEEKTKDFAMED
PRMT7 (Homo sapiens, UniProt Q9NVM4), sequence (Q9NVM4 whole entry, species assumed): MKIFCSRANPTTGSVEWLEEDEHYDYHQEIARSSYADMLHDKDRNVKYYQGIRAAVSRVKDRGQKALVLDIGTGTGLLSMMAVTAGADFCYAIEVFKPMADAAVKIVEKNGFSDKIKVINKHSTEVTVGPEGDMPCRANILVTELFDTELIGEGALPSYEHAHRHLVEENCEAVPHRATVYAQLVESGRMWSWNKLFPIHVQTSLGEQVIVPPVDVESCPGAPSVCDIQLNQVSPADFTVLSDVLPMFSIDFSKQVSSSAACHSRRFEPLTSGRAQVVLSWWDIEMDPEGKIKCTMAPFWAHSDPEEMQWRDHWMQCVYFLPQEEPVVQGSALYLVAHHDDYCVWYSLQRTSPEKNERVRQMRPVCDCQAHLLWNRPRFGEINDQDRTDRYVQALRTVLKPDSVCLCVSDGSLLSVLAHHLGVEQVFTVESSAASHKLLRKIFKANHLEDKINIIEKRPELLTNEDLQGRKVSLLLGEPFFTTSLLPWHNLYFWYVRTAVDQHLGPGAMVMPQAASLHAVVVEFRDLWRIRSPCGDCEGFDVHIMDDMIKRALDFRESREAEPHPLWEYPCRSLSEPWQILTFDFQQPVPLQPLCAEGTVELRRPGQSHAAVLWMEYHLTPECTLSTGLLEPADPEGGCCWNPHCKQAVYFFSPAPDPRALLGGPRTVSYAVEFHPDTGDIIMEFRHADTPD
PRMT5, sequence (O14744 whole entry, species assumed): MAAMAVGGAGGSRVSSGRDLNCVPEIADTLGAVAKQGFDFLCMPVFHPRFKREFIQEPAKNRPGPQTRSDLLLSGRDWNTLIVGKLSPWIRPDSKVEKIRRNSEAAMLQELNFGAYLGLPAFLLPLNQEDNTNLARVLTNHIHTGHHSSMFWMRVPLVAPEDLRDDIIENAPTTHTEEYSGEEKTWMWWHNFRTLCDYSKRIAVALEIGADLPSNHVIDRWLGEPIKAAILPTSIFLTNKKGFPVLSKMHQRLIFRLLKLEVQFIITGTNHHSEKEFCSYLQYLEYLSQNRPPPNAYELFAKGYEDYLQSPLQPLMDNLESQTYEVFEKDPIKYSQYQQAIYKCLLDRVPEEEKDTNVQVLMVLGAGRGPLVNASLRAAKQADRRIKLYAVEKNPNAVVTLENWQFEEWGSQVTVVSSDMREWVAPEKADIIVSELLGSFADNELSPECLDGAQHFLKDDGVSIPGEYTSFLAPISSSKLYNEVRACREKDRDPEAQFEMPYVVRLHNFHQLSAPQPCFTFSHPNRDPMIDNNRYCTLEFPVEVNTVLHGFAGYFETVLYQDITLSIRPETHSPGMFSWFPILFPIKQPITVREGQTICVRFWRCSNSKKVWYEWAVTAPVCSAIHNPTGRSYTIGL
PRMT5, sequence (Q9BQA1 whole entry partner, species assumed): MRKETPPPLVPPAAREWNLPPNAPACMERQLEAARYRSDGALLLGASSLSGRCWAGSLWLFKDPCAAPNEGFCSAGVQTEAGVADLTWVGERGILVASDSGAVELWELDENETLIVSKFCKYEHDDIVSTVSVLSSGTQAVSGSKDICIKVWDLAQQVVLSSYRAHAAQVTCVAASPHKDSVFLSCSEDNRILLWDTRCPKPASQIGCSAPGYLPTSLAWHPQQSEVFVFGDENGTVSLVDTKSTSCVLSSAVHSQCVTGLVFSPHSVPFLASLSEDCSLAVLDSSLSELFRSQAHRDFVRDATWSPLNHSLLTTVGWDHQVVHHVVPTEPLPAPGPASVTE

A word on the IC50: it is the midpoint of a concentration-inhibition curve. As to `N=C(NCCCSC[C@H]1O[C@@H](n2cnc3c(NCc4cn(Cc5ccccc5)nn4)ncnc32)C(O)[C@H]1O)Nc1cccc(Br)c1` (stereo in doubt) [YD1-254], at PRMT1 [1], the “PRMT1 inhibition” value is listed as “PRMT1 inhibitors”. For the same compound, the concentration for half-maximal inhibition (IC50) on PRMT8 [2] was 40 nM; in the assay with PRMT3 [3] it was 3620 nM; with PRMT4 [4] it was 1680 nM; on PRMT5, 1790 nM; against PRMT6 [5] it was 25 nM; at PRMT1 [6] it was 14 nM. The IC50 in the assay with PRMT7 [7] is over 30000 nM.
The inhibition is the relative decrease from the control value, in per cent. In the case of `N=C(NCCCSC[C@H]1O[C@@H](n2cnc3c(N)ncnc32)[C@H](O)[C@@H]1O)Nc1cccc(Br)c1` [Compound 5f], the inhibition at 10 µM against PRMT1 [1] was determined as 94%; on PRMT8 [8], 100%; on PRMT4 [9] it was 100%; against PRMT3 [10], 68%; on PRMT6 [11] it was 100%. Moreover, the IC50 on PRMT1 [1] (read-out: IC50[μM] | PRMT1) stood at 0.08 ± 0.016 µM; in the assay with PRMT3 [3], 321 nM; with PRMT4 [4], 5.05 nM; with PRMT7 [7], 555 nM; in the assay with PRMT3 [12] it was 2.2 ± 0.29 µM. In addition, the “inhibition of all PRMTs” value in the assay on PRMTs is “broad and potent inhibition to all PRMTs”.
`Nc1ncnc2c1ncn2[C@@H]1O[C@H](CSCCCNCc2cccc(-c3ccc(Cl)cc3)c2)[C@@H](O)[C@H]1O` [Compound 10m]: the inhibition at 10 µM at PRMT1 [1] is 65%; at PRMT8 [8] it was 73%; at PRMT4 [9], 99%; against PRMT3 [10] it was 22%; on PRMT6 [11], 46%. Further, on PRMT4 [9], the “PRMT4 inhibition” value was “more potent PRMT4 inhibition activity than SGC8158”. Also, the “PRMT4/7 inhibition” value with PRMT4/7 is listed as “potent PRMT4/7 inhibitor”.
With `CCNC(=O)NCCSC[C@H]1O[C@@H](n2cnc3c(N)ncnc32)[C@H](O)[C@@H]1O` [DS-437], in the assay on PRMT 5/7, the “PRMT 5/7 inhibition” value is listed as “dual inhibition to PRMT 5/7”.
For `CC(C)N(CCCNC(=O)Nc1ccc(C(C)(C)C)cc1)C[C@H]1O[C@@H](n2ccc3c(N)ncnc32)[C@H](O)[C@@H]1O` [EPZ004777], the “selectivity for DOT1L” value in the assay with DOT1L is “high selectivity”.
In the case of `C[S+](CC[C@H](N)C(=O)O)C[C@H]1O[C@@H](n2cnc3c(N)ncnc32)[C@H](O)[C@@H]1O` (stereo partly drawn) [SAM, S-adenosyl-L-methionine, reference compound], the “ΔTm PRMT1” value on PRMT1 [13] was “+1.6 °C”. On PRMT4 [14], the “ΔTm PRMT4” value was “+1.9 °C”. Further, at PRMT3 [15], the “ΔTm PRMT3” value is “+1.1 °C”.
Turning to `Nc1ncnc2c1ncn2C1OC(CSCCCCNCc2cccc(-c3ccc(Cl)cc3)c2)C(O)C1O` (centres unmarked) [SGC8158], the “PRMT7 inhibition” value at PRMT7 [16] was “selectively inhibits PRMT7; also recorded: selective PRMT7 inhibition; also recorded: selective PRMT7 inhibitor”.
For the compound `N=C(NCCCSC[C@H]1O[C@@H](n2cnc3c(NCC#Cc4ccccc4)ncnc32)[C@H](O)[C@@H]1O)Nc1cccc(Br)c1` [YD1-248], the “PRMT1 inhibition” value at PRMT1 [1] is “PRMT1 inhibitors”. In addition, the IC50 was 24 nM against PRMT8 [2]; 2370 nM in the assay on PRMT3 [3]; 2760 nM in the assay on PRMT4 [4]; 1380 nM on PRMT5; 25 nM against PRMT6 [5]; 3.35 nM against PRMT1 [6]. In the assay on PRMT7 [7], this compound showed a half-inhibitory concentration (IC50) of 5570 nM.
Regarding `CC(CN(CCCN)C[C@H]1O[C@@H](n2cnc3c(N)ncnc32)[C@H](O)[C@@H]1O)NC(=O)NCc1ccccc1` (some centres unmarked) [YD1288], in the assay on PRMT4/5, the “PRMT4/5 inhibition” value was “dual selective and potent PRMT4/5 inhibitor”.
